From US11622942B2, “Benzene-1,3,5-tricarboxamide derived ester lipids and uses thereof” (Ohio State Innovation Foundation, priority 2017, dated 2023)

Test system: Hep3B cells
Test: LLNs-mediated luciferase transfection assay (FLuc mRNA delivery)
Format: cell-based, human
Conditions: FLuc mRNA-loaded LLNs, 6 h transfection, normalized to TT3 (FIG. 1)
Method: The synthesized compounds were formulated with 1,2-dioleoyl-sn-glycero-3-phosphoethanolamine (DOPE), cholesterol, and mRNA. The formulated nanoparticles were evaluated with a luciferase expression assay.
Benzene-1,3,5-tricarbonyl trichloride (12) was reacted with Boc-protected diamine (13) in order to produce the intermediates (14) (Broaders, K. E. et. al. Chem. Commun. (Cambridge, U. K.) 2011, 47, 665-667). Deprotection of (14) gave compound (11), which underwent reductive amination to afford the desired products compounds #1 to #10 (See Dong, Y. et. al. Proc. Natl. Acad. Sci. U.S.A 2014, 111, 3955-3960). The structures of compounds #1 to #10 were confirmed by ^1H NMR spectroscopy (See FIGS. 12-21) and mass spectrometry (See FIGS. 2-11). […] Meanwhile, particle properties (including size, zeta potential, and entrapment efficiency) are measured using a dynamic light-scattering instrument and a ribogreen assay (Love Kevin, T. et. al. Proc. Nat. Acad. Sci. U.S.A 2010, 107, 1864-1869; Chen, D. et. al. J. Am. Chem. Soc. 2012, 134, 6948-6951).
Next, delivery efficiency and cytotoxicity of compounds #1 to #10 (LLNs-FLuc mRNA) was evaluated in Hep3B cells, a human hepatoma cell line. […]

CCCCC(CCC)OC(=O)CCCCCCCCN(CCCCCCCCC(=O)OC(CCC)CCCC)CCCNC(=O)c1cc(C(=O)NCCCN(CCCCCCCCC(=O)OC(CCC)CCCC)CCCCCCCCC(=O)OC(CCC)CCCC)cc(C(=O)NCCCN(CCCCCCCCC(=O)OC(CCC)CCCC)CCCCCCCCC(=O)OC(CCC)CCCC)c1 (stereo not shown) [Compound 10]
expression of the firefly luciferase: highest expression
